# Entries after “also recorded” stand apart in the source; their conditions may differ. Where a SMILES comes first, the peptide text is derived from it. [ ]: non-standard residue; d: D form. The star is where a group is joined. 5FAM = O=C1OC2(c3ccc(O)cc3Oc3cc(O)ccc32)c2ccc(C(=O)*)cc21; Pro(cis-4-guanidino) = NC(N)=N[C@@H]1CN[C@H](C(=O)O)C1; Cha = N[C@@H](CC1CCCCC1)C(=O)O; Ahx = NCCCCCC(=O)O
# System: MCF-7 cells
# Experiment: Flow cytometry (FACS): overall cellular uptake
# Type: cell-based
# Conditions: for Fold higher cellular uptake with additional C-terminal hydrophobic residue (FACS): 1 h, 37 °C, versus the peptide without the C-terminal Cha/ChPro; for Total cellular fluorescence after the 24 h rest compared with directly after 1 h incubation (FACS): MCF-7, 1 h incubation at 37 °C, then 24 h rest in DMEM + 10% FBS
# Procedure: MCF-7 cells were seeded in a 24-well plate at 150′000 cells/well in DMEM (1 mL, 10% FCS), and allowed to adhere overnight. The medium was removed, the cells were washed with PBS (250 μL, 1x) and incubated with the peptide solution at 20 μM, 10 μM, 5 μM or 2.5 μM in medium (200 μL, 1% FCS) for 1 h at 37 °C. The medium was removed, and the cells were washed with PBS (250 μL, 2x). Trypsin (100 μL, 0.05%) was added, and the cells were incubated at 37 °C for 5 min. D-PBS with Mg^2+ and Ca^2+ (300 μL, 4 °C) was added, the cells were resuspended and centrifuged for 5 min at 0.4 rcf. The supernatant was carefully removed, and the cells were resuspended in a solution of PBS containing 1.5 μM PI and 2 mM EDTA (400 μL at 4 °C). The cells were added to FACS tubes and kept on ice prior to analysis. Each sample contained 10′000 cells and was analyzed in triplicate. Each experiment was repeated three times.
# For the experiments that included the 24 h rest period, the peptides were incubated as described above. After the 1 h incubation time, the cells were washed with PBS (250 μL, 2x), DMEM (250 μL, 10% FBS) was added, and the cells were kept at 37 °C, 5% CO2 for 24 h. For a direct comparison of the effect of a 24 h rest period, another set of peptides was incubated with the cells for 1 h. Then, cells of both sets of experiments (1 h followed by the 24 h rest period versus 1 h incubation) were washed with PBS, treated with trypsin, and prepared for FACS analysis as described above. Each sample was run in triplicate and was repeated three times. […]
# MCF-7 cells were obtained from the American Type Culture Collection (ATCC).
# The cells were grown in a humidified 5% CO2 atmosphere at 37 °C Dulbecco’s Modified Eagle’s Medium (DMEM), high glucose, GlutaMAXTM (4 mM) supplemented with L-glutamine (4 mM), gentamicin (10 mg/L), […]
# Fluorescence-Activated Cell Sorting (FACS) analyzer
# On a BD LSRFortessa flow cytometer, CF was excited at 488 nm and monitored with 530/30 bandpass, PI was excited at 561 nm and monitored with a 610/20 bandpass. Mean fluorescence values were determined from the histograms using FlowJo 10.0.6 software while dead cells were removed according to PI staining.
# Below is an example, CF-Ahx-(ChaZZ)3, of gating, set on untreated cells and propagated to all samples.
# Each sample was run in triplicate, and each experiment was repeated at least three times.
# (1 picture or pasted object on this page, not shown here)
Compound,"Fold higher cellular uptake with additional C-terminal hydrophobic residue (FACS) (MCF-7, 5 μM) [fold]","Fold higher cellular uptake with additional C-terminal hydrophobic residue (FACS) (MCF-7, 10 μM) [fold]","Fold higher cellular uptake with additional C-terminal hydrophobic residue (FACS) (MCF-7, 20 μM) [fold]",Total cellular fluorescence after the 24 h rest compared with directly after 1 h incubation (FACS)
"N=C(N)N[C@H]1C[C@@H](C(=O)N2C[C@@H](NC(=N)N)C[C@H]2C(=O)N[C@@H](CC2CCCCC2)C(=O)N2C[C@@H](NC(=N)N)C[C@H]2C(=O)N2C[C@@H](NC(=N)N)C[C@H]2C(=O)N[C@@H](CC2CCCCC2)C(=O)N2C[C@@H](NC(=N)N)C[C@H]2C(=O)N2C[C@@H](NC(=N)N)C[C@H]2C(=O)N[C@@H](CC2CCCCC2)C(N)=O)N(C(=O)[C@H](CC2CCCCC2)NC(=O)CCCCCNC(=O)c2ccc3c(c2)C(=O)OC32c3ccc(O)cc3Oc3cc(O)ccc32)C1 [(ChaZZ)3-Cha, CF-Ahx-(ChaZZ)3-Cha-NH2] ({5FAM-Ahx}-[Cha][Pro(cis-4-guanidino)][Pro(cis-4-guanidino)][Cha][Pro(cis-4-guanidino)][Pro(cis-4-guanidino)][Cha][Pro(cis-4-guanidino)][Pro(cis-4-guanidino)][Cha]-NH2)",3,3,1.5,constant or increased
CF-Ahx-(ChaZZ)2-Cha-NH2,2,4,6,lower; also recorded: Significantly less fluorescence was observed after 24 h
CF-Ahx-(ChaZZ)3-NH2,,,,lower; also recorded: less fluorescence was observed after 24 h

# — paper PMC12455572, “Amphipathic Proline-Rich Cell Penetrating Peptides for Targeting Mitochondria” (ACS Chemical Biology, 2025)
